Laboratory results: patent US12110276B2 (Genentech, Inc., priority 2021, dated 2024)

Columns and labels:
TEAD2 = TEAD2 (Homo sapiens (Human), UniProt Q15562);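 note: TR-FRET competition assay with His-tagged TEAD protein and a biotinylated lipid pocket probe, compound pre-incubated 30 min or 4 h at room temperature, displacement lowers signal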
Protocol: His-tagged TEAD proteins are pre-incubated with TEAD project compounds for 30 minutes or 4 hours at room temperature. Biotinylated lipid pocket probes are then added to the TEAD/Compound mixture and incubated for 60 minutes at room temperature. The lipid pocket probe competes with the test compound for the TEAD lipid pocket until equilibrium is reached. After 60 minutes, Europium labelled anti-His (Perkin Elmer #AD0110) and XL665 labelled streptavidin (CIS Bio 610SAXAC) are added to the TEAD/test compound/lipid pocket mixture and incubated for 30 minutes or 4 hours. TR-FRET values are then measured using an EnVision multi-label plate reader (Perkin Elmer Cat #2104-0010A.) If the lipid pocket probe binds to TEAD as expected, a TR-FRET signal results from the proximity of anti-His Eu and XL665. If a TEAD lipid pocket binder such as binds and displaces the lipid pocket probe, the disruption of the TEAD:probe interaction results in a decrease in TR-FRET signal. The potency of compounds as TEAD lipid pocket binders is determined by IC50 value generated using a non-linear 4 parameter curve fit.

TEAD4 = TEAD4 (Homo sapiens (Human), UniProt Q15561); assay: TR-FRET lipid pocket probe competition assay (Lipid HTRF), TEAD4; format: binding; conditions: 4 hours pre-incubation; read-out: Lipid HTRF TEAD4 IC50;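 note: His-tagged TEAD4 with biotinylated lipid-pocket probe, read by Europium anti-His and XL665 streptavidin, where probe displacement lowers the TR-FRET signal, IC50 from a four-parameter fit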
TEAD1 = TEAD1 (Homo sapiens (Human), UniProt P28347); assay: TR-FRET lipid pocket probe competition assay (Lipid HTRF), TEAD1; format: binding; conditions: 4 hours pre-incubation; read-out: Lipid HTRF TEAD1 IC50;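 note: His-tagged TEAD1 with biotinylated probe, detected via Europium anti-His and XL665 streptavidin, probe displacement lowers TR-FRET signal, IC50 from four-parameter nonlinear fit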
TEAD3 = TEAD3 (Homo sapiens (Human), UniProt Q99594); assay: TR-FRET lipid pocket probe competition assay (Lipid HTRF), TEAD3; format: binding; conditions: 4 hours pre-incubation; read-out: Lipid HTRF TEAD3 IC50
TEAD3, sequence (Q99594 whole entry, species assumed): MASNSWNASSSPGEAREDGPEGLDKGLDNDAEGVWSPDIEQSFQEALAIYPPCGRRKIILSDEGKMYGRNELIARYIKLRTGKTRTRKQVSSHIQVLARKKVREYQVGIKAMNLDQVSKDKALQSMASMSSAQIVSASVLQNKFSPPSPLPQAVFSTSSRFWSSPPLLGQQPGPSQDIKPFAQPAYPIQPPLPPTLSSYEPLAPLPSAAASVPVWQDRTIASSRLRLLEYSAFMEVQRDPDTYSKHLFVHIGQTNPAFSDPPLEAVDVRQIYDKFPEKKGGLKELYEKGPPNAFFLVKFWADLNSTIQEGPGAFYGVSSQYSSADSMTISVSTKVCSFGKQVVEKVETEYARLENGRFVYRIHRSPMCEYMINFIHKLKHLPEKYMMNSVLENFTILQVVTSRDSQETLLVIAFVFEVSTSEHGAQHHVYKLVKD

TEAD2, sequence (Q15562 whole entry, species assumed): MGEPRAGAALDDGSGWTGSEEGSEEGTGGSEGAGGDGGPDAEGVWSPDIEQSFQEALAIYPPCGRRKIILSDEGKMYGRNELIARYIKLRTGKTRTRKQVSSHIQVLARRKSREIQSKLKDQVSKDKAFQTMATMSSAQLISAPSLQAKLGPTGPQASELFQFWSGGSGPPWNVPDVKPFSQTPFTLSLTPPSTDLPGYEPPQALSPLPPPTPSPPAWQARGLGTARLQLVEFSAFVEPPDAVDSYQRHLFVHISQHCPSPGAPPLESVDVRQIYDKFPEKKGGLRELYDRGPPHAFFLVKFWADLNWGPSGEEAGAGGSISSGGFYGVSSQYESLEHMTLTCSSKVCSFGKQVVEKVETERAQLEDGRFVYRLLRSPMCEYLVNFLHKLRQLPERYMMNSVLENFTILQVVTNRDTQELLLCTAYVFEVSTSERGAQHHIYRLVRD
TEAD4, sequence (Q15561 whole entry, species assumed): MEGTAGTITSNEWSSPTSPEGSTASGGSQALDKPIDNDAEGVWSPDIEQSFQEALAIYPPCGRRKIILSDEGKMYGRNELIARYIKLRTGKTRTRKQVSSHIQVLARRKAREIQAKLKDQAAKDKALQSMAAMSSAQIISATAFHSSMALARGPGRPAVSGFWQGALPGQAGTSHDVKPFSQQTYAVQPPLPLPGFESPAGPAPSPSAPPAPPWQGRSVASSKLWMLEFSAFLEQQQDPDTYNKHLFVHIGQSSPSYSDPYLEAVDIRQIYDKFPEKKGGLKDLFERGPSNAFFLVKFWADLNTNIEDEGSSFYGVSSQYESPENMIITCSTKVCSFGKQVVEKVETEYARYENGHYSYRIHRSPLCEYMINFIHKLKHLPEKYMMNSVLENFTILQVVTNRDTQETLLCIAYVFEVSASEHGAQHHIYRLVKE
TEAD1, sequence (P28347 whole entry, species assumed): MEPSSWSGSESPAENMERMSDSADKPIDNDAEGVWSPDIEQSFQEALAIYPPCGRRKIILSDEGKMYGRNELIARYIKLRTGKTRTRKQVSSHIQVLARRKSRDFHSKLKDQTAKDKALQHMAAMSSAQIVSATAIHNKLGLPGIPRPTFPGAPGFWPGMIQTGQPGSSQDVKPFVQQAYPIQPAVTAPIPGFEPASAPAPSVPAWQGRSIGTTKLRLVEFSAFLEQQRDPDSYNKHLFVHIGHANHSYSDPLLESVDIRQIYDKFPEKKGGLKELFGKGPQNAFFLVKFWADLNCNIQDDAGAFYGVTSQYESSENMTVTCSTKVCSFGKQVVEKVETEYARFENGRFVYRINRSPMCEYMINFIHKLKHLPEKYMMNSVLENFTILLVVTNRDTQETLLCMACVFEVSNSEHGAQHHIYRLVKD

SMILES	IC50 (TEAD2) [nM]	IC50 (TEAD4) [nM]	IC50 (TEAD1) [nM]	IC50 (TEAD3) [nM]
C=CC(=O)NCc1nn(-c2ccc(OC(F)(F)F)cc2)c2nccc(N[C@H]3C[C@H](O)C3)c12 [Compound 85, N-((4-((3-hydroxycyclobutyl)amino)-1-(4-(trifluoromethoxy)phenyl)-1H-pyrazolo[3,4-b]pyridin-3-yl)methyl)acrylamide]	480	170	140	15000
C=CC(=O)NCc1nn(-c2ccc(OC(F)(F)F)cc2)c2nccc(N3CC[C@@H](O)C3)c12 [Compound 47, (R)-N-((4-(3-hydroxypyrrolidin-1-yl)-1-(4-(trifluoromethoxy)phenyl)-1H-pyrazolo[3,4-b]pyridin-3-yl)methyl)acrylamide]	100	11	33	2000
C=CC(=O)NCc1nn(-c2ccc(OC(F)(F)F)cc2)c2nccc(-c3cnn(CCOC)c3)c12 [Compound 167, N-[[4-[1-(2-methoxyethyl)pyrazol-4-yl]-1-[4-(trifluoromethoxy)phenyl]pyrazolo[3,4-b]pyridin-3-yl]methyl]prop-2-enamide]	210	35	57	1700
C=CC(=O)NCc1nn(-c2ccc(OC(F)(F)F)cc2)c2nccc([C@@H](O)CO)c12 (stereo in doubt) [Compound 16, N-((4-(1,2-dihydroxyethyl)-1-(4-(trifluoromethoxy)phenyl)-1H-pyrazolo[3,4-b]pyridin-3-yl)methyl)acrylamide]	120	61	230	680
C=CC(=O)NCc1nn(-c2ccc(OC(F)(F)F)cc2)c2nccc(-c3cnn(C(C)C)c3)c12 [Compound 170, N-[[4-(1-isopropylpyrazol-4-yl)-1-[4-(trifluoromethoxy)phenyl]pyrazolo[3,4-b]pyridin-3-yl]methyl]prop-2-enamide]	355	92.8	120	26600
C=CC(=O)NCc1nn(-c2ccc(S(F)(F)(F)(F)F)cc2)c2ccccc12 [Compound 3, N-((1-(4-(pentafluoro-λ^6-sulfanyl)phenyl)-1H-indazol-3-yl)methyl)acrylamide]	250	7.9	7	210
C=CC(=O)NCc1nn(-c2ccc(S(F)(F)(F)(F)F)cc2)c2nccc(CO)c12 [Compound 87, N-((4-(Hydroxymethyl)-1-(4-(pentafluoro-λ^6-sulfanyl)phenyl)-1H-pyrazolo[3,4-b]pyridin-3-yl)methyl)acrylamide]	190	33	23	520
C=CC(=O)NCc1nn(-c2ccc(OC(F)(F)F)cc2)c2cccc(CO)c12 [Compound 4, N-((4-(hydroxymethyl)-1-(4-(trifluoromethoxy)phenyl)-1H-indazol-3-yl)methyl)acrylamide]	140	59	23	270
C=CC(=O)NCc1nn(-c2ccc(OC(F)(F)F)cc2)c2nccc(N3CC(NC)C3)c12 [Compound 122, N-((4-(3-(methylamino)azetidin-1-yl)-1-(4-(trifluoromethoxy)phenyl)-1H-pyrazolo[3,4-b]pyridin-3-yl)methyl)acrylamide]	2000	39	190	21000
C=CC(=O)NCc1nn(-c2ccc(OC(F)(F)F)cc2)c2nccc(-c3cn[nH]c3)c12 [Compound 134, N-((4-(1H-Pyrazol-4-yl)-1-(4-(trifluoromethoxy)phenyl)-1H-pyrazolo[3,4-b]pyridin-3-yl)methyl)acrylamide]	43	22	14	360
CC#CC(=O)N1CC(c2nn(-c3ccc(OC(F)(F)F)cc3)c3nccc([C@@H](O)CO)c23)C1 [Compound 71, (R)-1-(3-(4-(1,2-dihydroxyethyl)-1-(4-(trifluoromethoxy)phenyl)-1H-pyrazolo[3,4-b]pyridin-3-yl)azetidin-1-yl)but-2-yn-1-one]	5.3	16	32	43
C=CC(=O)NCc1nn(-c2ccc(OC(F)(F)F)cc2)c2nccc(N3CC[C@H](O)C3)c12 [Compound 46, (S)-N-((4-(3-hydroxypyrrolidin-1-yl)-1-(4-(trifluoromethoxy)phenyl)-1H-pyrazolo[3,4-b]pyridin-3-yl)methyl)acrylamide]	150	13	50	2100
CC#CC(=O)N1CC(c2nn(-c3ccc(OC(F)(F)F)cc3)c3nccc([C@H](O)CO)c23)C1 [Compound 129, (S)-1-(3-(4-(1,2-Dihydroxyethyl)-1-(4-(trifluoromethoxy)phenyl)-1H-pyrazolo[3,4-b]pyridin-3-yl)azetidin-1-yl)but-2-yn-1-one]	20	43	110	200
C=CC(=O)NCc1nn(-c2ccc(OC(F)(F)F)cc2)c2nccc(N3CC(C#N)C3)c12 [Compound 52, N-((4-(3-Cyanoazetidin-1-yl)-1-(4-(trifluoromethoxy)phenyl)-1H-pyrazolo[3,4-b]pyridin-3-yl)methyl)acrylamide]	45	3.4	14	3500
C=CC(=O)NCc1nn(-c2ccc(OC(F)(F)F)cc2)c2nccc(NCCO)c12 [Compound 36, N-((4-((2-Hydroxyethyl)amino)-1-(4-(trifluoromethoxy)phenyl)-1H-pyrazolo[3,4-b]pyridin-3-yl)methyl)acrylamide]	120	5.8	9.2	500
C=C(F)C(=O)NCc1nn(-c2ccc(OC(F)(F)F)cc2)c2nccc([C@H](O)CO)c12 [Compound 155, (S)-N-((4-(1,2-Dihydroxyethyl)-1-(4-(trifluoromethoxy)phenyl)-1H-pyrazolo[3,4-b]pyridin-3-yl)methyl)-2-fluoroacrylamide]	350	160	320	6900
C=C(C)S(=O)(=O)N1CC(c2nn(-c3ccc(OC(F)(F)F)cc3)c3nccc([C@H](O)CO)c23)C1 [Compound 159, (S)-1-(3-(1-(Prop-1-en-2-ylsulfonyl)azetidin-3-yl)-1-(4-(trifluoromethoxy)phenyl)-1H-pyrazolo[3,4-b]pyridin-4-yl)ethane-1,2-diol]	5.7	8.5	45	240
C=CC(=O)NCc1nn(-c2ccc(OC(F)(F)F)cc2)c2nccc([C@H]3COC(=O)O3)c12 [Compound 144, (S)-N-((4-(2-Oxo-1,3-dioxolan-4-yl)-1-(4-(trifluoromethoxy)phenyl)-1H-pyrazolo[3,4-b]pyridin-3-yl)methyl)acrylamide]	150	55	560	50000
O=C(NCc1nn(-c2ccc(OC(F)(F)F)cc2)c2nccc([C@H](O)CO)c12)C1=CCC1 [Compound 156, (S)-N-((4-(1,2-Dihydroxyethyl)-1-(4-(trifluoromethoxy)phenyl)-1H-pyrazolo[3,4-b]pyridin-3-yl)methyl)cyclobut-1-enecarboxamide]	25	7.8	33	740
C=CC(=O)NCc1nn(-c2ccc(OC(F)(F)F)cc2)c2nccc(O[C@H]3C[C@@H](O)C3)c12 [Compound 34, N-((4-(cis-3-Hydroxycyclobutoxy)-1-(4-(trifluoromethoxy)phenyl)-1H-pyrazolo[3,4-b]pyridin-3-yl)methyl)acrylamide]	340	39	23	50000
C=C(C)S(=O)(=O)N1CC(c2nn(-c3ccc(OC(F)(F)F)cc3)c3nccc([C@@H](O)CO)c23)C1 [Compound 160, (R)-1-(3-(1-(prop-1-en-2-ylsulfonyl)azetidin-3-yl)-1-(4-(trifluoromethoxy)phenyl)-1H-pyrazolo[3,4-b]pyridin-4-yl)ethane-1,2-diol]	15	43	76	1200
C=C(F)C(=O)N1CC(c2nn(-c3ccc(OC(F)(F)F)cc3)c3nccc(N4CC(O)C4)c23)C1 [Compound 81, 2-Fluoro-1-(3-(4-(3-hydroxyazetidin-1-yl)-1-(4-(trifluoromethoxy)phenyl)-1H-pyrazolo[3,4-b]pyridin-3-yl)azetidin-1-yl)prop-2-en-1-one]	24	11	32	240
C=CC(=O)NCc1nn(-c2ccc(OC(F)(F)F)cc2)c2nccc(N3CC(O)C3)c12 [Compound 106, N-((4-(3-hydroxyazetidin-1-yl)-1-(4-(trifluoromethoxy)phenyl)-1H-pyrazolo[3,4-b]pyridin-3-yl)methyl)acrylamide]	61	6.75	15.5	935
C=CC(=O)NCc1nn(-c2ccc(S(F)(F)(F)(F)F)cc2)c2cccc([C@H](O)CO)c12 (single isomer, unassigned) [Compound 11, N-((4-(1,2-dihydroxyethyl)-1-(4-(pentafluoro-λ^6-sulfanyl)phenyl)-1H-indazol-3-yl)methyl)acrylamide]	86	17	23	1300
C=CC(=O)NCc1nn(-c2ccc(OC(F)(F)F)cc2)c2nccc(-c3cnn(CCN(C)C)c3)c12 [Compound 172, N-[[4-[1-[2-(dimethylamino)ethyl]pyrazol-4-yl]-1-[4-(trifluoromethoxy)phenyl]pyrazolo[3,4-b]pyridin-3-yl]methyl]prop-2-enamide]	810	150	470	19000
